According to patent US20190255080A1, “METHOD OF REDUCING THYROID-ASSOCIATED SIDE EFFECTS” (Viking Therapeutics, Inc., priority 2016, published 2019):
“Also recorded” adds a separate entry of the source.

Experiments:
[1] = test system: beagle dogs; assay: Alternative dosing study in dogs: indicators of thyroid function (serum tT4, fT4, tT3, fT3, TSH); type: in vivo
Experimental: (§1) The objective of the study was to determine the effects of oral administration of Compound 2 once-daily for 14 days followed by alternate day dosing for 14 days on plasma cholesterol levels and indicators of thyroid function in beagle dogs. Compound 2 was formulated with Lutrol F68 NF (Poloxomer 188) and carboxymethylcellulose (CMC; sodium salt/high viscosity) and was administered as a suspension in 0.5% CMC/1% Lutrol in deionized water. Twelve beagle dogs (9-15 kg) were randomized into 6 dosing groups (1 male and 1 female/group) and gavaged once-daily with a 0.5% CMC/1% Lutrol F68 suspension of Compound 2 at doses of […] or with vehicle for 14 days. At the end of the treatment cycle (Cycle 1), the dogs were washed out for 4 weeks and then entered into a second 14-day treatment cycle. Cycle 2 employed the same dosing paradigm as Cycle 1, but animals were randomized to Cycle 2 in such a way that the combined dosing groups from the two cycles consisted of 4 different animals (2 males, 2 females) each. At the conclusion of Cycle 2, dosing was continued on alternate days for an additional 14-day period (Cycle 2 Extension). Blood samples were collected at baseline and appropriate time intervals thereafter and analyzed for total plasma cholesterol levels, serum levels of total T4 (tT4), free T4 (fT4), total T3 (tT3), free T3 (fT3), and thyroid stimulating hormone (TSH).

[2] = test system: beagle dogs; assay: Alternative dosing study in dogs: total plasma cholesterol levels; type: in vivo
Experimental: as §1

[3] = Previously determined no observable adverse effect level (NOAEL) and exposure at it; conditions: in vivo
Experimental: (§2) The maximum cumulative weekly dose will not exceed 40 mg in this current clinical study. […] The projected systemic exposure (AUC0-168 hr [i.e., exposure during one week]) of the active metabolite at the 40 mg once weekly dose is 5570 ng*hr/mL. […] Projected exposures in humans receiving 40 mg once weekly is therefore estimated to be about 3-fold lower than exposures at the previously determined 5 mg/kg/day no observable adverse effect level (NOAEL).

[4] = test system: patients with primary hypercholesterolemia and non-alcoholic fatty liver disease; assay: Phase 1b study: LDL-C and triglycerides over 4-week treatment period; type: in vivo, humans; conditions: 5 mg daily and up to 40 mg once weekly
Experimental: A phase 1b, randomized, double-blind, placebo-controlled, study is carried out to assess the efficacy, safety, and tolerability of Compound 1, administered for 12 weeks followed by a 4-week off-drug phase, in patients with primary hypercholesterolemia and non-alcoholic fatty liver disease.
as §2
Approximately 32 subjects are enrolled and randomly assigned in a 6:2 ratio (Compound 1:placebo) to one of the following treatment groups: (1) 5 mg Compound 1 or Placebo once daily (2) 20 mg Compound 1 or Placebo once weekly (3) 40 mg Compound 1 or Placebo once weekly (4) 10 mg Compound 1 or Placebo every other day The primary endpoint is the percent change in LDL-C from the baseline visit to Day 29. Either a 20% decrease in LDL-C or a lowering of LDL-C to within the normal range is considered clinically meaningful. Subjects are also monitored for adverse effects and/or clinically relevant changes in health status or results from laboratory analyses. […]

[5] = alternate day dosing after once-daily treatment
[6] = 0.3 mg/kg/day, once-daily oral, 14 days
[7] = 10 mg/kg/day (highest dose), once-daily oral, 14 days

Row | SMILES | levels of fT4 during Cycle 2 Extension [1, 5] | levels of tT4 during Cycle 2 Extension [1, 5] | recovery of TSH levels during Cycle 2 Extension [1, 5] | recovery of fT3 levels during Cycle 2 Extension [1, 5] | effects on serum TSH levels on Day 8 ([1]; once-daily treatment, Day 8) | TSH levels reduced from baseline on Day 15 ([1]; once-daily treatment, Day 15, non-dose-dependent) | changes in tT3 levels relative to baseline levels ([1]; once-daily treatment, compared with vehicle-treated group) | reductions of serum tT4 from baseline levels ([1]; once-daily treatment, dose-dependent, across dose groups) | reductions of fT4 from baseline levels ([1]; once-daily treatment, dose-related, across dose groups) | reductions of fT3 from baseline levels ([1]; once-daily treatment, non-dose-dependent, across dose groups) | effects on total plasma cholesterol levels ([2]; 0.1 mg/kg/day (lowest dose), once-daily oral) | average reduction of total plasma cholesterol levels on Day 15 [2, 6] | average reduction of total plasma cholesterol levels on Day 15 from baseline [2, 6] | average reduction of total plasma cholesterol levels on Day 15 [2, 7] | average reduction of total plasma cholesterol levels on Day 15 from baseline [2, 7] | total plasma cholesterol levels during alternate day dosing ([2]; Cycle 2 Extension, alternate day dosing for 14 days after 14 days once-daily) | reductions of average total plasma cholesterol levels from baseline ([2]; once-daily oral, 14 days, 0.1-10 mg/kg) | NOAEL [3] | LDL-C [4] | triglycerides [4]
1 | Cc1cc(OC[P@]2(=O)OC[C@@H](c3cccc(Cl)c3)CO2)cc(C)c1Cc1ccc(O)c(C(C)C)c1 [Compound 2] | gradually recovered to levels that approached those of vehicle-treated animals | gradually recovered to levels that approached those of vehicle-treated animals | more variable recovery | more variable recovery | variable, with full suppression in some animals and up to 4-fold elevations in others | 6-27% | no meaningful changes; also recorded: unaffected | 20-54% | 8-39% | 15-32% | minimal effects | -28 mg/dL | ~22% | -71 mg/dL | ~47% | remained reduced relative to vehicle-treated animals to a similar or greater extent than observed after once-daily dosing; also recorded: did not compromise cholesterol lowering efficacy | up to 47% |  |  | 
2 | Cc1cc(OCP(=O)(OCOC(=O)C(C)(C)C)OCOC(=O)C(C)(C)C)cc(C)c1Cc1ccc(O)c(Cc2ccccc2)c1 [Compound 1] |  |  |  |  |  |  |  |  |  |  |  |  |  |  |  |  |  | 5 mg/kg/day | dose and/or schedule dependent decreases | dose and/or schedule dependent decreases
